According to ChEMBL document CHEMBL3877252, “Fluorescein hydrazones: A series of novel non-intercalative topoisomerase IIα catalytic inhibitors induce G1 arrest and apoptosis in breast and colon cancer cells” (Eur J Med Chem, 2017):
Activity calls are given as the source filed them. The calls are words filed in the database; no cut-off is given here.

How the values were obtained:
[1] = target: T1, DNA topoisomerase 1 (Homo sapiens) (UniProt P11387); experiment: Inhibition of human topoisomerase-1 assessed as inhibition of relaxation of supercoiled pBR322 plasmid DNA at 100 uM measured after 1 hr by ethidium bromide staining based agarose gel electrophoresis relative to control
T1 sequence (whole entry): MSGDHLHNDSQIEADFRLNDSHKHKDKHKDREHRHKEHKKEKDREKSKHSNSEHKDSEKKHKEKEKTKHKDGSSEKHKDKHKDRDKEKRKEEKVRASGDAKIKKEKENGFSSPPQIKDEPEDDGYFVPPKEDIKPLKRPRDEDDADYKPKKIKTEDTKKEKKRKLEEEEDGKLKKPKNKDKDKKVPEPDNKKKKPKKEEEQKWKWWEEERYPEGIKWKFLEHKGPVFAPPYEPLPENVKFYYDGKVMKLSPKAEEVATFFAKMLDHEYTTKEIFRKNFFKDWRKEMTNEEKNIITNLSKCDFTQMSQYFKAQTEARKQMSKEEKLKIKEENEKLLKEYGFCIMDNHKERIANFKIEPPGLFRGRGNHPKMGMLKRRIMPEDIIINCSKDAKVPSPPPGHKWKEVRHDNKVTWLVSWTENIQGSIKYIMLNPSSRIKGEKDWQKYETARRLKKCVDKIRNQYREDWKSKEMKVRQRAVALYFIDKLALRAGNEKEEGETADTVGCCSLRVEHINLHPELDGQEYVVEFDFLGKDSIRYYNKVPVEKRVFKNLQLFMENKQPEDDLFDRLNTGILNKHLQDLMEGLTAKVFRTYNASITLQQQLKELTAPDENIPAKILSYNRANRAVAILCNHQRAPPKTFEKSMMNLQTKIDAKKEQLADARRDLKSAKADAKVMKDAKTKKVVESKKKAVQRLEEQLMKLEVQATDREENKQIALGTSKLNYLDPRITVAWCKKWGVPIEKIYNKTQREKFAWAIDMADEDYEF

[2] = target: T1, DNA topoisomerase 1 (Homo sapiens); experiment: Inhibition of human topoisomerase-1 assessed as inhibition of relaxation of supercoiled pBR322 plasmid DNA at 20 uM measured after 1 hr by ethidium bromide staining based agarose gel electrophoresis relative to control
[3] = target: DNA topoisomerase 2-alpha (Homo sapiens) (UniProt P11388); experiment: Inhibition of human topoisomerase-2 alpha assessed as inhibition of relaxation of supercoiled pBR322 plasmid DNA at 100 uM measured after 1 hr by ethidium bromide staining based agarose gel electrophoresis relative to control
[4] = target: DNA topoisomerase 2-alpha (Homo sapiens) (UniProt P11388); experiment: Inhibition of human topoisomerase-2 alpha assessed as inhibition of relaxation of supercoiled pBR322 plasmid DNA at 20 uM measured after 1 hr by ethidium bromide staining based agarose gel electrophoresis relative to control
[5] = Antiproliferative activity against human T47D cells measured after 72 hrs by CCK8 assay; assay type: functional, cell-based
[6] = Antiproliferative activity against human DU145 cells measured after 72 hrs by CCK8 assay; assay type: functional, cell-based; details: DU-145, 72 h
[7] = Antiproliferative activity against human HCT15 cells measured after 72 hrs by CCK8 assay; assay type: functional, cell-based; details: HCT-15, 72 h
[8] = Antiproliferative activity against human MCF7 cells measured after 72 hrs by CCK8 assay; assay type: functional, cell-based; details: MCF7, 72 h
[9] = target: DNA topoisomerase 2-alpha (Homo sapiens) (UniProt P11388); experiment: Poison activity at topoisomerase-2 alpha in human T47D cells assessed as DNA damage by measuring DNA tail length at 5 uM measured after 24 hrs by alkaline comet assay; assay type: cell-based
[10] = target: DNA topoisomerase 2-alpha (Homo sapiens) (UniProt P11388); experiment: Poison activity at topoisomerase-2 alpha in human T47D cells assessed as DNA damage by measuring DNA tail length at 10 uM measured after 24 hrs by alkaline comet assay; assay type: cell-based
[11] = Cell cycle arrest in human T47D cells assessed as decrease in cyclin D1 level measured after 24 hrs; assay type: functional, cell-based
[12] = Cell cycle arrest in human T47D cells assessed as increase in p27kip1 level measured after 24 hrs; assay type: functional, cell-based
[13] = Cell cycle arrest in human T47D cells assessed as accumulation at G1 phase at 10 uM by DAPI staining based cell analyzer; assay type: functional; details: TDE = time-dependent effect
[14] = Cell cycle arrest in human T47D cells assessed as decrease in cyclin D1 level at 10 uM; assay type: functional, cell-based; details: TDE = time-dependent effect
[15] = Cell cycle arrest in human T47D cells assessed as increase in p27kip1 level at 10 uM; assay type: functional, cell-based; details: TDE = time-dependent effect
T47D [16] = experiment: Induction of apoptosis in human T47D cells assessed as increase in cleaved PARP level measured after 24 hrs by Western blot analysis; assay type: functional, cell-based
T47D [17] = experiment: Induction of apoptosis in human T47D cells assessed as increase in bax level measured after 24 hrs by Western blot analysis; assay type: functional, cell-based
T47D [18] = experiment: Induction of apoptosis in human T47D cells assessed as decrease in bcl-2 level measured after 24 hrs by Western blot analysis; assay type: functional, cell-based
[19] = target: DNA topoisomerase 2-alpha (Homo sapiens) (UniProt P11388); experiment: Inhibition of topoisomerase-2 alpha catalytic activity in human T47D cells assessed as appearance of free protein band at 50 uM measured after 2 hrs by Western blot analysis; assay type: cell-based
[20] = Cell cycle arrest in human T47D cells assessed as accumulation at G1 phase at 1 uM after 24 hrs by DAPI staining-based cell analyzer (reference value: 51%); assay type: functional
[21] = Cell cycle arrest in human T47D cells assessed as accumulation at G1 phase at 3 uM after 24 hrs by DAPI staining-based cell analyzer (reference value: 51%); assay type: functional
[22] = Cell cycle arrest in human T47D cells assessed as accumulation at G1 phase at 10 uM after 24 hrs by DAPI staining-based cell analyzer (reference value: 51%); assay type: functional
[23] = Cell cycle arrest in human T47D cells assessed as accumulation at S phase at 1 uM after 24 hrs by DAPI staining-based cell analyzer (reference value: 26%); assay type: functional
[24] = Cell cycle arrest in human T47D cells assessed as accumulation at S phase at 3 uM after 24 hrs by DAPI staining-based cell analyzer (reference value: 26%); assay type: functional
[25] = Cell cycle arrest in human T47D cells assessed as accumulation at S phase at 10 uM after 24 hrs by DAPI staining-based cell analyzer (reference value: 26%); assay type: functional
[26] = Cell cycle arrest in human T47D cells assessed as accumulation at G2/M phase at 1 uM after 24 hrs by DAPI staining-based cell analyzer (reference value: 15%); assay type: functional
[27] = Cell cycle arrest in human T47D cells assessed as accumulation at G2/M phase at 3 uM after 24 hrs by DAPI staining-based cell analyzer (reference value: 15%); assay type: functional
[28] = Cell cycle arrest in human T47D cells assessed as accumulation at G2/M phase at 10 uM after 24 hrs by DAPI staining-based cell analyzer (reference value: 15%); assay type: functional
[29] = Cell cycle arrest in human T47D cells assessed as accumulation at G1 phase at 10 uM after 5 hrs by DAPI staining-based cell analyzer (reference value: 47 to 50%); assay type: functional
[30] = Cell cycle arrest in human T47D cells assessed as accumulation at G1 phase at 10 uM after 10 hrs by DAPI staining-based cell analyzer (reference value: 47 to 50%); assay type: functional
[31] = Cell cycle arrest in human T47D cells assessed as accumulation at G1 phase at 10 uM after 15 hrs by DAPI staining-based cell analyzer (reference value: 47 to 50%); assay type: functional
[32] = Cell cycle arrest in human T47D cells assessed as accumulation at G1 phase at 10 uM after 20 hrs by DAPI staining-based cell analyzer (reference value: 47 to 50%); assay type: functional
[33] = Cell cycle arrest in human T47D cells assessed as accumulation at S phase at 10 uM after 5 hrs by DAPI staining-based cell analyzer (reference value: 22%); assay type: functional
[34] = Cell cycle arrest in human T47D cells assessed as accumulation at S phase at 10 uM after 10 hrs by DAPI staining-based cell analyzer (reference value: 22%); assay type: functional
[35] = Cell cycle arrest in human T47D cells assessed as accumulation at S phase at 10 uM after 15 hrs by DAPI staining-based cell analyzer (reference value: 22%); assay type: functional
[36] = Cell cycle arrest in human T47D cells assessed as accumulation at S phase at 10 uM after 20 hrs by DAPI staining-based cell analyzer (reference value: 22%); assay type: functional
[37] = Cell cycle arrest in human T47D cells assessed as accumulation at G2/M phase at 10 uM after 5 hrs by DAPI staining-based cell analyzer (reference value: 18 to 20%); assay type: functional
[38] = Cell cycle arrest in human T47D cells assessed as accumulation at G2/M phase at 10 uM after 10 hrs by DAPI staining-based cell analyzer (reference value: 18 to 20%); assay type: functional
[39] = Cell cycle arrest in human T47D cells assessed as accumulation at G2/M phase at 10 uM after 15 hrs by DAPI staining-based cell analyzer (reference value: 18 to 20%); assay type: functional
[40] = Cell cycle arrest in human T47D cells assessed as accumulation at G2/M phase at 10 uM after 20 hrs by DAPI staining-based cell analyzer (reference value: 18 to 20%); assay type: functional
Bos taurus = organism: Bos taurus; experiment: Displacement of ethidium bromide from calf thymus DNA measured after 30 mins by fluorescence quenching assay

Chain of DNA topoisomerase 2-alpha (Homo sapiens) (P11388 whole entry): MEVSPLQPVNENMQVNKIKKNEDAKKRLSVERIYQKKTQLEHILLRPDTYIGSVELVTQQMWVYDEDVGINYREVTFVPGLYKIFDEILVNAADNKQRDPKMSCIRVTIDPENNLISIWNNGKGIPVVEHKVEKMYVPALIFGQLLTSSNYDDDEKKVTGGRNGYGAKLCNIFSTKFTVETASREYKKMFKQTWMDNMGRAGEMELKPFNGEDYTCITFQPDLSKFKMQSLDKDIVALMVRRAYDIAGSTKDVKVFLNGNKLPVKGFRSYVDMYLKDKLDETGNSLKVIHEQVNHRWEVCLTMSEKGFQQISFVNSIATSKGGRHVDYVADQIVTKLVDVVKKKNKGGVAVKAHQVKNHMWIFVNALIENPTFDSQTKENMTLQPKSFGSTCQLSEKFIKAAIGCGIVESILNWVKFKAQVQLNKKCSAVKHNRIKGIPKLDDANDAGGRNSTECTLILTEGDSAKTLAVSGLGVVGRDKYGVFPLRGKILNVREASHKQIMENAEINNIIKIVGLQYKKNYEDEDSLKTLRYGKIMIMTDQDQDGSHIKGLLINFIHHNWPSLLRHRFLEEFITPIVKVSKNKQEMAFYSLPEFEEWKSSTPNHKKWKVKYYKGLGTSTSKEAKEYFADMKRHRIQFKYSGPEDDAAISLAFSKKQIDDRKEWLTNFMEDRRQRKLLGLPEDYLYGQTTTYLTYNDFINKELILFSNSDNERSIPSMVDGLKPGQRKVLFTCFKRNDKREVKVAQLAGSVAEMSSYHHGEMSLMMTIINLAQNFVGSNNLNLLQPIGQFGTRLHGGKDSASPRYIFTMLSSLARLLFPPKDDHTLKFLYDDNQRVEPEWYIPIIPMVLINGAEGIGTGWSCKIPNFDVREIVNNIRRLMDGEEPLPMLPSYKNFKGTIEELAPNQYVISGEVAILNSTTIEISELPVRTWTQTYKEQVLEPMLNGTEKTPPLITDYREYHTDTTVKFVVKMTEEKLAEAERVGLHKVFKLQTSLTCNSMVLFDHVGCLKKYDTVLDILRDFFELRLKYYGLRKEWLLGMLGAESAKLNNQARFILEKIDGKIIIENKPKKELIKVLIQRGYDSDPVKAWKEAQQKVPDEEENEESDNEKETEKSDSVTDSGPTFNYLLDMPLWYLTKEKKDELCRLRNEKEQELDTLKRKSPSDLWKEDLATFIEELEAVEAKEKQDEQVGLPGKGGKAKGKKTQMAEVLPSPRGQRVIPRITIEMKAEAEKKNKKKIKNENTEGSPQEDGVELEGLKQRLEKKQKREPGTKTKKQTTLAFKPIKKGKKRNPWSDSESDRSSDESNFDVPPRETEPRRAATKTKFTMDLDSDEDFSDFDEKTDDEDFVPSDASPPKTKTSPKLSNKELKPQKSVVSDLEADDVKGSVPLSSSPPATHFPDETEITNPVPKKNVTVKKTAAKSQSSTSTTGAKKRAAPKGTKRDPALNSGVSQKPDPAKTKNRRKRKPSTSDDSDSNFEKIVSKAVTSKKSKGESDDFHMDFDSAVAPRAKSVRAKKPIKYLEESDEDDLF

CCOc1ccc2c(c1)Oc1cc(O)ccc1C21c2ccccc2C(=O)N1/N=C/c1ccccc1O (stereo not given)
inhibition [1]: 39.5%
inhibition [2]: 28.1%
inhibition [3]: 78.7%
inhibition [4]: 1.9%
IC50 [5]: 430 nM
IC50 [6]: 550 nM
IC50 [7]: 1840 nM
IC50 [8]: 4740 nM
Activity [9]: 7.76 pixel
Activity [10]: 8.56 pixel
Activity [11]: Dose-dependent effect
Activity [12]: Dose-dependent effect
Activity [13]: Tde
Activity [14]: Tde
Activity [15]: Tde
Activity (T47D [16]): Dose-dependent effect
Activity (T47D [17]): Dose-dependent effect
Activity (T47D [18]): Dose-dependent effect
inhibition [19]: Active
Activity [20]: 54%
Activity [21]: 59%
Activity [22]: 60%
Activity [23]: 28%
Activity [24]: 25%
Activity [25]: 22%
Activity [26]: 14%
Activity [27]: 11%
Activity [28]: 11%
Activity [29]: 51%
Activity [30]: 55%
Activity [31]: 57%
Activity [32]: 62%
Activity [33]: 21%
Activity [34]: 22%
Activity [35]: 21%
Activity [36]: 20%
Activity [37]: 14%
Activity [38]: 13%
Activity [39]: 10%
Activity [40]: 10%

COc1cc(NS(C)(=O)=O)ccc1Nc1c2ccccc2nc2ccccc12
inhibition (Bos taurus): Dose-dependent effect

CCOc1ccc2c(c1)Oc1cc(O)ccc1C21c2ccccc2C(=O)N1/N=C/c1cccc(O)c1 (stereo not given)
inhibition [1]: 0%
inhibition [3]: 89.3%
inhibition [4]: 2.6%
IC50 [5]: 350 nM
IC50 [6]: 40 nM
IC50 [7]: 830 nM
IC50 [8]: 2230 nM
Activity [9]: 9.55 pixel
Activity [10]: 11.5 pixel
Activity [11]: Dose-dependent effect
Activity [12]: Dose-dependent effect
Activity [13]: Tde
Activity [14]: Tde
Activity [15]: Tde
Activity (T47D [16]): Dose-dependent effect
Activity (T47D [17]): Dose-dependent effect
Activity (T47D [18]): Dose-dependent effect
inhibition [19]: Active
Activity [20]: 56%
Activity [21]: 57%
Activity [22]: 64%
Activity [23]: 24%
Activity [24]: 22%
Activity [25]: 20%
Activity [26]: 13%
Activity [27]: 12%
Activity [28]: 9%
Activity [29]: 59%
Activity [30]: 60%
Activity [31]: 61%
Activity [32]: 65%
Activity [33]: 21%
Activity [34]: 21%
Activity [35]: 21%
Activity [36]: 15%
Activity [37]: 12%
Activity [38]: 12%
Activity [39]: 12%
Activity [40]: 12%
